Entries after “also recorded” stand apart in the source; their conditions may differ.
Experiments:
[1] = Stability of samples spread flat in the air under lighting, heating and high humidity, purity by HPLC; type: physicochemical
Protocol: Crystal form II prepared in Example 1 and the amorphous sample prepared in Example 2 were spread flat in the air to test their stability in conditions of lighting (4500 Lux), heating (40° C., 60′C.), and high humidity (RH 75%, RH 90%).

[2] = Special stability study: grinding, heating and pressing of the crystal form; type: physicochemical
From the text: Crystal form II of the compound of formula (I) prepared according to the method of Example 1 was ground, heated and pressed.

Row | SMILES | purity as detected by HPLC ([1]; 40° C., Day 0) [%] | purity as detected by HPLC ([1]; 40° C., Day 5) [%] | purity as detected by HPLC ([1]; 40° C., Day 10) [%] | purity as detected by HPLC ([1]; 60° C., Day 0) [%] | purity as detected by HPLC ([1]; 60° C., Day 5) [%] | purity as detected by HPLC ([1]; 60° C., Day 10) [%] | purity as detected by HPLC ([1]; Lighting (4500 Lux), Day 0) [%] | purity as detected by HPLC ([1]; Lighting (4500 Lux), Day 5) [%] | purity as detected by HPLC ([1]; Lighting (4500 Lux), Day 10) [%] | purity as detected by HPLC ([1]; RH 75%, Day 0) [%] | purity as detected by HPLC ([1]; RH 75%, Day 5) [%] | purity as detected by HPLC ([1]; RH 75%, Day 10) [%] | purity as detected by HPLC ([1]; RH 90%, Day 0) [%] | purity as detected by HPLC ([1]; RH 90%, Day 5) [%] | purity as detected by HPLC ([1]; RH 90%, Day 10) [%] | effect of high humidity on stability [1] | other results
1 | COc1nsc(NC(=O)N2C[C@H]3C[C@H](N(C)c4ncnc5[nH]ccc45)C[C@H]3C2)n1 [Amorphous Form, (3aR,5s,6aS)—N-(3-methoxyl-1,2,4-thiadiazole-5-yl)-5-(methyl(7H-pyrrolo[2,3-d]pyrimidine-4-yl)amino)hexahydrocyclopenta[c]pyrrole-2(1H)-formamide bisulfate] | 98.33 | 97.65 | 96.61 | 98.33 | 94.53 | 92.12 | 98.33 | 98.04 | 97.51 | 98.33 | 98.32 | 98.16 | 98.33 | 99.14 | 99.12 | does not have much effect | 
2 | COc1nsc(NC(=O)N2C[C@H]3C[C@H](N(C)c4ncnc5[nH]ccc45)C[C@H]3C2)n1 [Crystal form II, (3aR,5s,6aS)—N-(3-methoxyl-1,2,4-thiadiazole-5-yl)-5-(methyl(7H-pyrrolo[2,3-d]pyrimidine-4-yl)amino)hexahydrocyclopenta[c]pyrrole-2(1H)-formamide bisulfate] | 99.30 | 99.30 | 99.28 | 99.30 | 99.20 | 99.15 | 99.30 | 99.29 | 99.30 | 99.30 | 99.31 | 99.28 | 99.30 | 99.31 | 99.31 | does not have much effect | Crystal form after treatment ([2]; Grinding treatment for 10 minutes in a mortar under nitrogen atmosphere): form II; Crystal form after treatment ([2]; Heating treatment at 80° C. for 3 hours): form II; Crystal form after treatment ([2]; Pressing treatment, pressed to a slice): form II; stability of the crystal form ([2]; ground, heated and pressed): good stability; also recorded: stable; stability compared with the amorphous sample ([1]; conditions of high temperature and high humidity): significantly better than that of the amorphous sample; stability compared with the amorphous sample ([1]; conditions of lighting and high temperature): significantly better than that of the amorphous sample

Source: patent US10023577B2, “Crystalline form of JAK kinase inhibitor bisulfate and a preparation method thereof” (Jiangsu Hengrui Medicine Co., Ltd., priority 2014, dated 2018)
